Assay results reported in patent US6503929B1, “Nitrate salt of anti-ulcer medicine” (Nicox S.A., priority 1998, dated 2003).
Counter-ions that a name gives are not always drawn.

Columns and labels:
rats [1] = test: Anti-ulcer activity: gastric lesions produced by absolute ethyl alcohol (Robert et al. model); type: in vivo, rat; conditions: rats on empty stomach, oral dose 15 minutes before absolute ethyl alcohol (1 ml), sacrificed one hour later, cimetidine 50 mg/Kg, cimetidine nitrate 62,5 mg/Kg, ranitidine 50 mg/Kg, ranitidine nitrate 60 mg/Kg
Description: Anti-ulcer activity is evaluated according to the experimental model described in the paper of A. Robert e Al. “Cytoprotection by prostaglandins in rats. Prevention of gastric necrosis produced by alcohol, HCl, NaOH, hypertonic NaCl and thermal injury” 77, 433-43 1979. To 5 groups of 10 rats each, kept on empty stomach since the previous night, 15 minutes before the supply of absolute ethyl alcohol (1 ml), by oral way are supplied: 5 ml/Kg of carboxymethylcellulose aqueous suspension 2%. 50 mg/Kg of cimetidine in 5 ml/Kg of carboxymethylcellulose aqueous suspension 2%. 62,5 mg/Kg of cimetidine nitrate (corresponding to 50 mg/Kg of cimetidine) in 5 ml/Kg of carboxymethylcellulose aqueous suspension 2%. 50 mg/Kg of ranitidine in 5 ml/Kg of carboxymethylcellulose aqueous suspension 2%. 60 mg/Kg of ranitidine nitrate (corresponding to […]) in 5 ml/Kg of carboxymethylcellulose aqueous suspension 2%. A hour later the animals are sacrificed and the gastric lesion incidence is evaluated.

rats [2] = conditions: rat, in vivo, po, 100 mg/kg

CN/C(=N/CCSCc1nc[nH]c1C)NC#N [Cimetidine, cimetidine, reference compound]
Gastric Damage % (rats [1]): 100%

CNC(=C[N+](=O)[O-])NCCSCc1ccc(CN(C)C)o1 [Ranitidine, ranitidine, reference compound]
Gastric Damage % (rats [1]): 80%

CNC(=C[N+](=O)[O-])NCCSCc1ccc(CN(C)C)o1 [Ranitidine.HNO3, ranitidine mononitrate salt]
toxic symptom presence (rats [2]): In no one of the group animals the toxic symthom presence was noted | Gastric Damage % (rats [1]; mononitrate salt): 40%

cimetidine mononitrate salt [Cimetidine.HNO3]
Gastric Damage % (rats [1]): 50%
